From PubChem BioAssay AID200 (DTP/NCI, 2004)
Several values for one entry are separate records, joined by “and”; a condition that tells them apart may be missing. Identical values can stand only once. Toxic doses and inconclusive results are not listed.

System: B6C3F1 mice, B16 melanoma ip, median survival T/C
Assay: NCI In Vivo Anticancer Drug Screen. Data for tumor model B16 Melanoma (intraperitoneal) in B6C3F1 mice
Details: endpoint: median survival time, higher = longer survival
Procedure: The antitumor activity of compounds was measured in mice bearing transplantable tumors. Survival or tumor size were measured and the results are expressed as the measurement made in the treated group (T) divided by the measurement made in the vehicle treated control group (C). The tumor model used in this assay is B16 Melanoma (intraperitoneal) in B6C3F1 mice

[1] = dose: 3.12 mg/kg/injection, schedule: Q01DX009 (ip), vehicle: saline with Tween-80
[2] = dose: 12.5 mg/kg/injection, schedule: Q01DX009 (ip), vehicle: saline with Tween-80
[3] = dose: 25.0 mg/kg/injection, schedule: Q01DX009 (ip), vehicle: saline with Tween-80
[4] = dose: 50.0 mg/kg/injection, schedule: Q01DX009 (ip), vehicle: saline with Tween-80
[5] = dose: 100.0 mg/kg/injection, schedule: Q01DX009 (ip), vehicle: saline with Tween-80
[6] = dose: 12.5 mg/kg/injection, schedule: Q01DX009 (ip), vehicle: saline
[7] = dose: 25.0 mg/kg/injection, schedule: Q01DX009 (ip), vehicle: saline
[8] = dose: 50.0 mg/kg/injection, schedule: Q01DX009 (ip), vehicle: saline
[9] = dose: 100.0 mg/kg/injection, schedule: Q01DX009 (ip), vehicle: saline
[10] = dose: 200.0 mg/kg/injection, schedule: Q01DX009 (ip), vehicle: saline
[11] = dose: 200.0 mg/kg/injection, schedule: Q01DX009 (ip), vehicle: saline with Tween-80
[12] = dose: 400.0 mg/kg/injection, schedule: Q01DX009 (ip), vehicle: saline with Tween-80

COc1cccc2c1C(=O)c1c(O)c3c(c(O)c1C2=O)C[C@@](O)(C(C)=O)C[C@@H]3OC1CC(NC(=O)C(N)CC(C)C)C(O)C(C)O1 (some centres not stated)
T/C (dose: 6.25 mg/kg/injection, schedule: Q01DX001 (ip), vehicle: saline): 179 % of control
T/C (dose: 12.5 mg/kg/injection, schedule: Q01DX001 (ip), vehicle: saline): 204 % of control

O=C(O)C1CC(c2ccccc2)=NN1c1ccccc1 (configuration not stated)
T/C (dose: 12.5 mg/kg/injection, schedule: Q01DX009 (ip), vehicle: water): 113 % of control
T/C (dose: 25.0 mg/kg/injection, schedule: Q01DX009 (ip), vehicle: water): 120 % of control
T/C (dose: 50.0 mg/kg/injection, schedule: Q01DX009 (ip), vehicle: water): 107 % of control
T/C (dose: 100.0 mg/kg/injection, schedule: Q01DX009 (ip), vehicle: water): 103 % of control
T/C (dose: 200.0 mg/kg/injection, schedule: Q01DX009 (ip), vehicle: water): 110 % of control

CC[PH+](CC)CC[S-].CC[PH+](CC)CC[S-].[Au+].[Au+]
T/C (dose: 5.0 mg/kg/injection, schedule: Q01DX009 (ip), vehicle: Klucel (hydroxypropylcellulose) (HPC)): 94 % of control
T/C (dose: 10.0 mg/kg/injection, schedule: Q01DX009 (ip), vehicle: Klucel (hydroxypropylcellulose) (HPC)): 97 % of control
T/C (dose: 20.0 mg/kg/injection, schedule: Q01DX009 (ip), vehicle: Klucel (hydroxypropylcellulose) (HPC)): 97 % of control
T/C (dose: 40.0 mg/kg/injection, schedule: Q01DX009 (ip), vehicle: Klucel (hydroxypropylcellulose) (HPC)): 95 % of control

Clc1cc(Cl)nc(N2CC2)n1
T/C (dose: 2.5 mg/kg/injection, schedule: Q01DX009 (ip), vehicle: saline with Tween-80): 108 % of control
T/C (dose: 5.0 mg/kg/injection, schedule: Q01DX009 (ip), vehicle: saline with Tween-80): 102 % of control
T/C (dose: 10.0 mg/kg/injection, schedule: Q01DX009 (ip), vehicle: saline with Tween-80): 106 % of control

O/N=C/c1ccccc1O.O/N=C/c1ccccc1O.[Cu]
T/C (dose: 1.56 mg/kg/injection, schedule: Q01DX009 (ip), vehicle: saline with Tween-80): 94 % of control and 95 % of control
T/C [1]: 110 % of control and 86 % of control
T/C (dose: 6.25 mg/kg/injection, schedule: Q01DX009 (ip), vehicle: saline with Tween-80): 106 % of control
T/C [2]: 113 % of control and 88 % of control
T/C [3]: 95 % of control
T/C [4]: 95 % of control

C[Si](C)(CCl)N[Si](C)(C)CCl
T/C [2]: 100 % of control
T/C [3]: 104 % of control
T/C [4]: 99 % of control
T/C [5]: 96 % of control

CCCC(=O)Nc1ncnc2c1ncn2C1OC2COP(=O)(O)OC2C1OC(=O)CCC (configuration not stated)
T/C [6]: 102 % of control (2×) and 103 % of control
T/C [7]: 95 % of control and 100 % of control and 104 % of control
T/C [8]: 93 % of control and 102 % of control (2×)
T/C [9]: 94 % of control and 101 % of control and 102 % of control
T/C [10]: 112 % of control and 88 % of control and 100 % of control
T/C (dose: 400.0 mg/kg/injection, schedule: Q01DX009 (ip), vehicle: saline): 88 % of control and 94 % of control and 103 % of control

Cn1cnc([N+](=O)[O-])c1Sc1ncn[nH]1
T/C [6]: 108 % of control
T/C (dose: 12.5 mg/kg/injection, schedule: Q01DX009 (ip), vehicle: suspension in saline): 109 % of control
T/C [7]: 102 % of control
T/C (dose: 25.0 mg/kg/injection, schedule: Q01DX009 (ip), vehicle: suspension in saline): 115 % of control
T/C [8]: 108 % of control
T/C (dose: 50.0 mg/kg/injection, schedule: Q01DX009 (ip), vehicle: suspension in saline): 100 % of control
T/C [9]: 108 % of control
T/C (dose: 100.0 mg/kg/injection, schedule: Q01DX009 (ip), vehicle: suspension in saline): 101 % of control
T/C [10]: 108 % of control
T/C (dose: 200.0 mg/kg/injection, schedule: Q01DX009 (ip), vehicle: suspension in saline): 102 % of control

COc1ccc(NC(=O)Oc2ccc3c(C)cc(=O)oc3c2)c(OC)c1
T/C [3]: 99 % of control
T/C [4]: 94 % of control
T/C [5]: 99 % of control
T/C [11]: 100 % of control
T/C [12]: 98 % of control

Cc1ccc(C(CCCl)OC(C)C)cc1 (configuration not stated)
T/C [5]: 97 % of control
T/C [11]: 94 % of control
T/C [12]: 94 % of control

CCNC(=O)OCc1c(COC(=O)NCC)c(-c2ccc(Cl)c(Cl)c2)n2c1CCC2
T/C (dose: 0.78 mg/kg/injection, schedule: Q01DX009 (ip), vehicle: saline with Tween-80): 95 % of control
T/C [1]: 119 % of control
T/C [2]: 162 % of control
T/C [3]: 103 % of control
